Assay results reported in PubChem BioAssay AID743422 (The Scripps Research Institute Molecular Screening Center, 2014).
The source made the active and inactive calls. How the calls were made is not given here.

Target: Sphingosine 1-phosphate receptor 1 (Homo sapiens) (UniProt P21453)
Test: human S1P1 antagonists, dose response, counter-screen for S1PR3 antagonist project, cell-based, luminescence, late-stage (AID 743422)
Conditions: Tango EDG-1-bla U2OS cells, beta-lactamase FRET reporter, 5 h S1P

Sequence of Sphingosine 1-phosphate receptor 1 (Homo sapiens) (P21453 whole entry, looked up): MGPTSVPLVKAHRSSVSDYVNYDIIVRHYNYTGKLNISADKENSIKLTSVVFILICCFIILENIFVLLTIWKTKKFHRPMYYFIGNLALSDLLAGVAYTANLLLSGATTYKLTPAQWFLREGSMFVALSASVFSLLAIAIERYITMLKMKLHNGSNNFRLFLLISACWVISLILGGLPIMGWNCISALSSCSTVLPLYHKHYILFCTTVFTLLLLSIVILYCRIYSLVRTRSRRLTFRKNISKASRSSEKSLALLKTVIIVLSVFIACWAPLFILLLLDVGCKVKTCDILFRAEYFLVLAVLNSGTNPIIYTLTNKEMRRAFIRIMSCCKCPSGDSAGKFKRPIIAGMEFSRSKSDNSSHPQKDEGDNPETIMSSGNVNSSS

Row | SMILES | IC50
1 | O=C(NC(c1ccc(Cl)cc1)c1nc(-c2ccccn2)no1)c1cccc(Cl)c1 (centres undefined) | > 28.2 µM (inactive)
2 | O=C(NC(Cc1ccccc1)c1nc(-c2ccccc2)no1)c1cccc(Cl)c1 (centres undefined) | > 28.2 µM (inactive)
3 | COc1ccc(C(=O)NC(c2ccccc2)c2nc(-c3ccccc3)no2)cc1 (centres undefined) | > 28.2 µM (inactive)
4 | O=C(NC(c1ccc(Cl)cc1)c1nc(-c2cccc(Cl)c2)no1)c1cccc(Cl)c1 (centres undefined) | > 28.2 µM (inactive)
5 | O=C(NC(c1ccccc1)c1nc(-c2ccccc2)no1)c1cccc(Cl)c1 (centres undefined) | 1.6 µM
6 | O=C(NC(c1ccc(Br)cc1)c1nc(-c2ccccc2)no1)c1ccc(Cl)c(Cl)c1 (centres undefined) | > 28.2 µM (inactive)
7 | CCc1ccc(C(NC(=O)c2cccc(Cl)c2)c2nc(-c3ccccc3)no2)cc1 (centres undefined) | > 28.2 µM (inactive)
8 | Cc1ccc(C(=O)NC(c2ccccc2)c2nc(-c3ccccc3)no2)cc1 (centres undefined) | > 28.2 µM (inactive)
9 | O=C(NC(c1ccccc1)c1nc(-c2ccccc2)no1)c1ccc(Cl)cc1 (centres undefined) | 7.3 µM

Continued, values first:

Row | IC50 | SMILES
10 | > 28.2 µM (inactive) | O=C(NC(c1ccc(Cl)cc1)c1nc(-c2ccccc2)no1)c1cccc(Cl)c1 (centres undefined)
11 | 1.2 µM | O=C(NC(c1ccc(Cl)c(Cl)c1)c1nc(-c2ccccc2)no1)c1ccc(Cl)cc1 (centres undefined)
12 | 2.7 µM | O=C(c1cccc(Cl)c1)N(CCO)C(c1ccc(Cl)c(Cl)c1)c1nc(-c2ccccc2)no1 (centres undefined)
13 | 0.112 µM | O=C(NC(c1cccc(Cl)c1)c1nc(-c2ccccc2)no1)c1cc(Cl)cc(Cl)c1 (centres undefined)
14 | inactive | O=C(NC(c1ccc(Cl)cc1)c1nc(-c2ccccc2)no1)c1ccc(Cl)c(Cl)c1 (centres undefined)
